# Experiments:
# PI 3-kinase alpha [1] = target: T1, PI 3-kinase alpha (Homo sapiens, UniProt P42336); assay: Cellular assay H1, p-Akt (S473) in Rat-1 cells, Surefire format; format: cell-based; conditions: non-asterisked data: version H1 (Surefire format), Rat-1 cells; read-out: Assay H PI3Kα IC50
# PI 3-kinase alpha [2] = target: T1, PI 3-kinase alpha; assay: Kinase Glo Luminescent Kinase Assay (Kglo), assay A; format: biochemical; conditions: read-out: Assay A PI3Kα IC50
# PI 4-kinase beta = PI 4-kinase beta (Homo sapiens, UniProt Q9UBF8); assay: Kinase Glo Luminescent Kinase Assay (Kglo), assay D; format: biochemical; conditions: read-out: Assay D PI4Kβ IC50
# Chain of PI 4-kinase beta (Q9UBF8 whole entry): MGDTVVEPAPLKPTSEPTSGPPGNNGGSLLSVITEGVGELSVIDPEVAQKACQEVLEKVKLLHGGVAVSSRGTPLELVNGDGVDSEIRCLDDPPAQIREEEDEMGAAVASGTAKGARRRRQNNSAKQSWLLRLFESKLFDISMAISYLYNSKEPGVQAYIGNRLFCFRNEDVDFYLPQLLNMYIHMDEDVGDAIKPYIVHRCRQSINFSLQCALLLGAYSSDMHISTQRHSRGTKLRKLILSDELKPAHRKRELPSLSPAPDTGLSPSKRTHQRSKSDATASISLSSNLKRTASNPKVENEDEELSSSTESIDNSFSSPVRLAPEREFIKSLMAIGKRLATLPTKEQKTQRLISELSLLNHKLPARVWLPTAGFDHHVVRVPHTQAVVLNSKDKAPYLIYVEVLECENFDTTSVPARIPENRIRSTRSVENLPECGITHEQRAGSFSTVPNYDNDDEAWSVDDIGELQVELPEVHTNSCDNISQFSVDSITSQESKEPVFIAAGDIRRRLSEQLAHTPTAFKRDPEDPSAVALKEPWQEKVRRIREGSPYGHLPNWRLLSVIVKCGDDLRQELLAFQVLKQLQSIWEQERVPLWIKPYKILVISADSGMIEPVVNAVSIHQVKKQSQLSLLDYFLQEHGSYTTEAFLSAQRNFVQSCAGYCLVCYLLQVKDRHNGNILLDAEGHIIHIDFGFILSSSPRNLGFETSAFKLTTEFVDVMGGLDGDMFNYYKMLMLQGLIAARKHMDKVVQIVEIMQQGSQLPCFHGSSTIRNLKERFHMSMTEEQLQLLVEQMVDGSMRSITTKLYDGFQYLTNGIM
# PI 3-kinase delta [3] = target: T2, PI 3-kinase delta (Homo sapiens, UniProt O00329); assay: TR-FRET Adapta assay, assay F; conditions: read-out: Assay F PI3Kδ IC50
# Target sequence in this assay (O00329 whole entry): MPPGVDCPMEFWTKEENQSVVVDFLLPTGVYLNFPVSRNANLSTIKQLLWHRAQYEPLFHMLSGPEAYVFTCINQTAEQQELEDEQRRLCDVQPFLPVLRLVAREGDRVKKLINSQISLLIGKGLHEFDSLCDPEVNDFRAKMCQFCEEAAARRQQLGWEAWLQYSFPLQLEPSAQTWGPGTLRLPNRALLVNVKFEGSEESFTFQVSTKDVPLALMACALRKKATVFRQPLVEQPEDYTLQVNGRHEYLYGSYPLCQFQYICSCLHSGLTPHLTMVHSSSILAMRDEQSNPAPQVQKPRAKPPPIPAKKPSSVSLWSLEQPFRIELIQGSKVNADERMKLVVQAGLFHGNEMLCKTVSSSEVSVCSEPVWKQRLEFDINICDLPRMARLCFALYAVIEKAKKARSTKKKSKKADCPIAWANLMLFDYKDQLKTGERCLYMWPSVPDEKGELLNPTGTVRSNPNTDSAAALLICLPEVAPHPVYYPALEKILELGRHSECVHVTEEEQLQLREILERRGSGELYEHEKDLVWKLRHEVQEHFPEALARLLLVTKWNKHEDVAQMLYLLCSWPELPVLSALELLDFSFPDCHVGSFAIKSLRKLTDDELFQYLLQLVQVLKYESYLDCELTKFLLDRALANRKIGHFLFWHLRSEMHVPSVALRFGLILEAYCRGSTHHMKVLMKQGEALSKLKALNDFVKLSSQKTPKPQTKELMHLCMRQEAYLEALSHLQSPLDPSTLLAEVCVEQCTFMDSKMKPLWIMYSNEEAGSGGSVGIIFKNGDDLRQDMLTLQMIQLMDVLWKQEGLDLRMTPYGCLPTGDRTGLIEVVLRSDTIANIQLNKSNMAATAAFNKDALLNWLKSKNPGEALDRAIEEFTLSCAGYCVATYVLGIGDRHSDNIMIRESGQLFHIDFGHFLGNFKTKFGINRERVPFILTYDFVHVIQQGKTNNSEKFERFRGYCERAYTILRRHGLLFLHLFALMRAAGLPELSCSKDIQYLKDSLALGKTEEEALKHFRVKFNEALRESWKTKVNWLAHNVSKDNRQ
# Target sequence in this assay (P27986 461-568 partner): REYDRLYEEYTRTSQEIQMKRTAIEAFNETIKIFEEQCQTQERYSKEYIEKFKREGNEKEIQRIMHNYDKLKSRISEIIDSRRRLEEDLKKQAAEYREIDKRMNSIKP
# Protocol: TR-FRET Adapta Assay for PI 3-Kinase Gamma (E), PI 3-Kinase Delta (F)
# The TR-FRET Adapta™ Universal Kinase Assay Kit was purchased from Invitrogen Corporation (Carlsbad/CA, USA) (Cat. No. PV5099).
# PIK3CD substrate phosphatidylinositol (PI) was obtained from Invitrogen (vesicules consisting of 2 mM phosphatidylinositol (PI) in 50 mM HEPES pH7.5; Cat. No. PV5371). PIK3CG substrate phosphatidylinositol-4,5-bisphosphate (PIP(4,5)2 was obtained from Invitrogen (PIP2:PS large unilamellar vesicules consisting of 1 mM PIP2: 19 mM PS in 50 mM HEPES pH7.5, 3 mM MgCl2, 1 mM EGTA; Cat. No. PV5100).
# Time-Resolved Fluorescence Resonance Energy Transfer (TR-FRET) is a technology based on energy transfer between two adjacent dyes, from an excited electron in one dye (the donor) to an electron of an adjacent dye (the acceptor) through resonance, then released as a photon. This energy transfer is detected by an increase in the fluorescence emission of the acceptor, and a decrease in the fluorescence emission of the donor. TR-FRET assays for protein kinases use a long-lifetime lanthanide Terbium or Europium chelates as the donor species which overcome interference from compound autofluorescence or light scatter from precipitated compounds, by introducing a delay after excitation by a flashlamp excitation source. Results are often expressed as a ratio of the intensities of the acceptor and donor fluorophores. The ratiometric nature of such a value corrects for differences in assay volumes between wells, as well as corrects for quenching effects due to colored compounds. The Adapta™ assay can be divided into two phases: a kinase reaction phase and an ADP detection phase. In the kinase reaction phase, all kinase reaction components are added to the well and the reaction is allowed to incubate for a set period of time specific for each kinase. […] In the presence of an inhibitor, the amount of ADP formed by the kinase reaction is reduced, and the resulting intact antibody-tracer interaction maintains a high TR-FRET signal.
# 50 nL of compound dilutions were dispensed onto white 384-well small volume polystyrene plate. Then 5 μL of either PI 3-kinase gamma or PI 3-kinase delta and lipid substrate (PI or PIP2:PS) followed by 5 μL of ATP (final assay volume 10 μL) are incubated at RT. The standard reaction buffer for the Adapta™ TR-FRET assay contained 10 mM Tris-HCl pH 7.5, 3 mM MgCl2, 50 mM NaCl, 1 mM DTT, 0.05% CHAPS 3-[(3-cholamidopropyl)dimethylammonio]-1-propanesulfonate).
# Data are analyzed using Excel fit software or Graphpad Prism. IC50 values were derived by fitting a sigmoidal dose-response curve to a plot of assay readout over inhibitor concentration. All fits were performed with the program XLfit4 (ID Business Solutions, Guildford, UK). […] All fits were performed with the program XLfit4 (ID Business Solutions, Guildford, UK).
# Vps34 = Vps34 (Homo sapiens, UniProt Q8NEB9); assay: Kinase Glo Luminescent Kinase Assay (Kglo), assay C; format: biochemical; conditions: read-out: Assay C VPS34 IC50
# Chain of Vps34 (Q8NEB9 whole entry, species assumed): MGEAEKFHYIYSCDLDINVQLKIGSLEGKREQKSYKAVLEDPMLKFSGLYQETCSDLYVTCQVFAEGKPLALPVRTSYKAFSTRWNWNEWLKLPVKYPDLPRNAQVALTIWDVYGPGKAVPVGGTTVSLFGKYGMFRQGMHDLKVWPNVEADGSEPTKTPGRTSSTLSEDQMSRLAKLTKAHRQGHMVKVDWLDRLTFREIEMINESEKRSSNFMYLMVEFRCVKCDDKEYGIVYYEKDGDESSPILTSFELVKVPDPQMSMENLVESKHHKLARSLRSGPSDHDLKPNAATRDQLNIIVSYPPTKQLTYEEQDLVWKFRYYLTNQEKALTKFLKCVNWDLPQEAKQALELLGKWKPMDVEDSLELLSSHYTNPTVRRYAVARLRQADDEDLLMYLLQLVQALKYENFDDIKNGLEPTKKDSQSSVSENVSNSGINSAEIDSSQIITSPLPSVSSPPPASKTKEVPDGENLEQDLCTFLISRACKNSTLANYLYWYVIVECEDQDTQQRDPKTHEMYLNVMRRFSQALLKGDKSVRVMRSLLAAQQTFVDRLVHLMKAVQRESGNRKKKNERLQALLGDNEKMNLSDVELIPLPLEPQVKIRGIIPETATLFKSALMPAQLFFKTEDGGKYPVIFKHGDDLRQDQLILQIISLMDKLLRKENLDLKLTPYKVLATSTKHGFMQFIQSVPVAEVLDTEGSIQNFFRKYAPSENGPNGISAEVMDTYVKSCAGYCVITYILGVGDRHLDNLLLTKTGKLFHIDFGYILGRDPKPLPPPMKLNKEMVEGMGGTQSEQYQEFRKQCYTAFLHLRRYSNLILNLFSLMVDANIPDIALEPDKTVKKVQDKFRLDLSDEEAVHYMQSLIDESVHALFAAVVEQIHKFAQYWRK
# [4] = Microsomal clearance assay (M); conditions: intrinsic clearance in rat liver microsomes
# Protocol: The experiments were performed in 96-well glass plates at 37° C. on an automated Tecan EVO platform. Test compounds at a concentration of 10 mM in pure DMSO were diluted 1:1000 in water to 10 μM. […] Reactions were initiated by the addition of 150 μL of a cofactor solution containing 2 mM NADPH.
# PI 3-kinase beta [5] = target: T3, PI 3-kinase beta (Homo sapiens, UniProt P42338); assay: Cellular assay I1, p-Akt (S473) in Rat-1 cells, Surefire format; format: cell-based; conditions: non-asterisked data: version I1 (Surefire format), Rat-1 cells; read-out: Assay I PI3Kβ IC50
# PI 3-kinase gamma = PI 3-kinase gamma (Homo sapiens, UniProt P48736); assay: TR-FRET Adapta assay, assay E; format: biochemical; conditions: read-out: Assay E PI3Kγ IC50
# Chain of PI 3-kinase gamma (P48736 whole entry): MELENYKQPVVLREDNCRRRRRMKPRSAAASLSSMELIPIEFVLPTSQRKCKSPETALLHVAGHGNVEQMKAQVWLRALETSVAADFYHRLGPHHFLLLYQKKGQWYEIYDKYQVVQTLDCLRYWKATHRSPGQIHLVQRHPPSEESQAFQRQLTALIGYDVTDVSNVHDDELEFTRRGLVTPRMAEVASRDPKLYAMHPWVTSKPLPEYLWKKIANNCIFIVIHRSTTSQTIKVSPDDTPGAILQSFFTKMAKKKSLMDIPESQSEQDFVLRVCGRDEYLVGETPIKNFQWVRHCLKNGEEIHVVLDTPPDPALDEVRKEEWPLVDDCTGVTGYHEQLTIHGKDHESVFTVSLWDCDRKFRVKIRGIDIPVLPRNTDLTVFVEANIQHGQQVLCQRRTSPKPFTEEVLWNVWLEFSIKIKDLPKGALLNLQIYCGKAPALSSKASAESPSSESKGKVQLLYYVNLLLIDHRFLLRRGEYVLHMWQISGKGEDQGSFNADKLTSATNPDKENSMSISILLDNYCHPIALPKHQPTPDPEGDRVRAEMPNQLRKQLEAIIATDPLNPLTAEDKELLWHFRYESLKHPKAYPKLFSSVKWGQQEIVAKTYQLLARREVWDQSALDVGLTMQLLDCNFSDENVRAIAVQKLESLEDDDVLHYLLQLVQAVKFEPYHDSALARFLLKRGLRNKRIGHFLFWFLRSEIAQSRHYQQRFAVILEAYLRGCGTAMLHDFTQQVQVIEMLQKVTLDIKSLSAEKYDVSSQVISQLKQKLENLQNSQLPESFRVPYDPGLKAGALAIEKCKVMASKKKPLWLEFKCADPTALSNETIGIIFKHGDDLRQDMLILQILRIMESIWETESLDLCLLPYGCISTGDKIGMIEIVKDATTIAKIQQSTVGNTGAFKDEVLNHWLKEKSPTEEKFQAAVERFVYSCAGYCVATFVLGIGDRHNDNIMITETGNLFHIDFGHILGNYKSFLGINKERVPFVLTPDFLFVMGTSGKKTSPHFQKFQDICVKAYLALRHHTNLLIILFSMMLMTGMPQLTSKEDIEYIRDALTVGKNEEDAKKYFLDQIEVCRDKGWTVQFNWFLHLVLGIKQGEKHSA
# PI 3-kinase beta [6] = target: T3, PI 3-kinase beta; assay: Kinase Glo Luminescent Kinase Assay (Kglo), assay B; format: biochemical; conditions: read-out: Assay B PI3Kβ IC50
# mTOR = mTOR (Homo sapiens, UniProt P42345); assay: Lanthascreen kinase binding assay, assay G; conditions: read-out: Assay G mTOR IC50
# Protocol: Lanthascreen™ Kinase Binding Assay for mTOR (G)
# Binding of an inhibitor to the kinase competes for binding with the tracer, resulting in a loss of FRET.
# 50 nL of compound dilutions were dispensed onto white 384-well small volume polystyrene plate.
# PI 3-kinase delta [7] = target: T2, PI 3-kinase delta; assay: Cellular assay J1, p-Akt (S473) in Rat-1 cells, Surefire format; format: cell-based; conditions: non-asterisked data: version J1 (Surefire format), Rat-1 cells; read-out: Assay J PI3Kδ IC50
# Target sequence in this assay (O00329 whole entry): as the sequence (O00329 whole entry) above
# Target sequence in this assay (Q63787 whole entry partner): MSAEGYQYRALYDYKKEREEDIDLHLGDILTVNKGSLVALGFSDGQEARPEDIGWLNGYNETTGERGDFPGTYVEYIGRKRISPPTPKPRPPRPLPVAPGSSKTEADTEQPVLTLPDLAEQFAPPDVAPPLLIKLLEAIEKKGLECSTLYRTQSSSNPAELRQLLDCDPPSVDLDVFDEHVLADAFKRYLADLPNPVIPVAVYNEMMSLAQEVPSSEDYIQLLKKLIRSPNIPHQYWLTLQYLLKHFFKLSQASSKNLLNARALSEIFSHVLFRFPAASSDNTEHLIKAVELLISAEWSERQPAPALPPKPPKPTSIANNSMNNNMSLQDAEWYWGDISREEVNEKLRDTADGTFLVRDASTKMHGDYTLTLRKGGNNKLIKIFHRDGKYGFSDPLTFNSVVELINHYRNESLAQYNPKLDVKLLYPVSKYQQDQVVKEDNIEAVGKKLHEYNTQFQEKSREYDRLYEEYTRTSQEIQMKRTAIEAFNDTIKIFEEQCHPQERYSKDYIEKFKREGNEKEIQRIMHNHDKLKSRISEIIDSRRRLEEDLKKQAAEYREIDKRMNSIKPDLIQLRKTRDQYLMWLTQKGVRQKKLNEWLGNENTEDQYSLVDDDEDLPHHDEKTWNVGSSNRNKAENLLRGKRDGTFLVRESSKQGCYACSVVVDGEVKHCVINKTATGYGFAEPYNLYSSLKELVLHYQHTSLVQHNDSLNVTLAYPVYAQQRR
SMILES,IC50 (PI 3-kinase alpha [1]) [µM],IC50 (PI 3-kinase alpha [2]) [µM],IC50 (PI 4-kinase beta) [µM],IC50 (PI 3-kinase delta [3]) [µM],IC50 (Vps34) [µM],Assay M RLM CI(int) [4] [µL/min/mg],IC50 (PI 3-kinase beta [5]) [µM],IC50 (PI 3-kinase gamma) [µM],IC50 (PI 3-kinase beta [6]) [µM],IC50 (mTOR) [µM],IC50 (PI 3-kinase delta [7]) [µM]
"Cc1ccc(S(=O)(=O)NCCC(C)(C)O)cc1-c1cnc(N)c(-c2cnc(C3CC3)s2)n1 [Example 107, 3-(5-Amino-6-(2-cyclopropylthiazol-5-yl)pyrazin-2-yl)-N-(3-hydroxy-3-methylbutyl)-4-methylbenzenesulfonamide]",0.79,0.08,0.94,0.06,3.1,119,1.29,0.006,2.09,1.39,0.96
"Cc1ccc(S(=O)(=O)NCC(C)(C)O)cc1-c1cnc(N)c(-c2cnn(CCN(C)C)c2)n1 [Example 142, 3-(5-Amino-6-(1-(2-(dimethylamino)ethyl)-1H-pyrazol-4-yl)pyrazin-2-yl)-N-(2-hydroxy-2-methylpropyl)-4-methylbenzenesulfonamide]",> 10,1,> 10,1,> 10,34,> 10,0.27,6,–,> 10
"CCn1cc(-c2nc(-c3cc(S(=O)(=O)NCC(C)(C)O)ccc3C)cnc2N)nn1 [Example 83, 3-(5-Amino-6-(1-ethyl-1H-1,2,3-triazol-4-yl)pyrazin-2-yl)-N-(2-hydroxy-2-methylpropyl)-4-methylbenzenesulfonamide]",> 10,1.9,4.3,0.7,> 10,45,8.75,0.085,5.2,> 10,4.05
"CCc1noc(-c2nc(-c3cc(S(=O)(=O)NC4CNC4)ccc3C)cnc2N)n1 [Example 137, 3-(5-Amino-6-(3-ethyl-1,2,4-oxadiazol-5-yl)pyrazin-2-yl)-N-(azetidin-3-yl)-4-methylbenzenesulfonamide]",> 10,1.74,> 9.1,0.33,> 9.1,28,> 10,0.058,> 9.1,0.95,8.58
"COc1nc(-c2nc(-c3cc(S(=O)(=O)NCCC(C)(C)O)ccc3C)cnc2N)cs1 [Example 110, 3-(5-Amino-6-(2-methoxythiazol-4-yl)pyrazin-2-yl)-N-(3-hydroxy-3-methylbutyl)-4-methylbenzenesulfonamide]",0.48,0.09,> 10,0.32,> 10,254,1.73,0.01,0.52,> 10,0.69
"Cc1ccc(S(=O)(=O)NOC(C)C)cc1-c1cnc(N)c(-n2cncn2)n1 [Example 112.3, 3-(5-Amino-6-(1H-1,2,4-triazol-1-yl)pyrazin-2-yl)-N-isopropoxy-4-methylbenzenesulfonamide]",0.4,0.36,1.2,0.26,> 10,123,> 3,–,1.1,1.36,0.86
"Cc1ncc(S(=O)(=O)NCC(C)(C)O)cc1-c1cnc(N)c(-n2cncn2)n1 [Example 53, 5-(5-Amino-6-(1H-1,2,4-triazol-1-yl)pyrazin-2-yl)-N-(2-hydroxy-2-methylpropyl)-6-methylpyridine-3-sulfonamide]",> 10,1.7,> 10,3.7,> 10,29,> 10,0.69,7,–,> 10
"Cc1ccc(S(=O)(=O)NOCC(C)C)cc1-c1cnc(N)c(-n2cncn2)n1 [Example 112.4, 3-(5-Amino-6-(1H-1,2,4-triazol-1-yl)pyrazin-2-yl)-N-isobutoxy-4-methylbenzenesulfonamide]",0.07,0.08,1.1,0.19,> 10,–,> 3,0.093,0.56,> 10,0.4

# More lines, now with the values ahead:
IC50 (PI 3-kinase alpha [1]) [µM],IC50 (PI 3-kinase alpha [2]) [µM],IC50 (PI 4-kinase beta) [µM],IC50 (PI 3-kinase delta [3]) [µM],IC50 (Vps34) [µM],Assay M RLM CI(int) [4] [µL/min/mg],IC50 (PI 3-kinase beta [5]) [µM],IC50 (PI 3-kinase gamma) [µM],IC50 (PI 3-kinase beta [6]) [µM],IC50 (mTOR) [µM],IC50 (PI 3-kinase delta [7]) [µM],SMILES
2.96,0.21,> 9.1,0.48,> 9.1,347,5.15,0.059,4.5,5.7,2.96,"Cc1cc(-c2nc(-c3cc(S(=O)(=O)NCC4CCCOC4)ccc3C)cnc2N)ccn1 (centres unmarked) [Example 129.14, 3-(5-amino-6-(2-methylpyridin-4-yl)pyrazin-2-yl)-4-methyl-N-((tetrahydro-2H-pyran-3-yl)methyl)benzenesulfonamide]"
7.6,0.49,> 9.1,0.34,> 9.1,139,> 10,0.016,7.1,> 9.1,6.84,"Cc1cc(-c2nc(-c3cc(S(=O)(=O)NCCCCCO)ccc3C)cnc2N)ccn1 [Example 129.3, 3-(5-amino-6-(2-methylpyridin-4-yl)pyrazin-2-yl)-N-(5-hydroxypentyl)-4-methylbenzenesulfonamide]"
1.68,0.26,2.67,0.2,> 9.1,191,6.04,0.011,3.22,6.04,0.79,Cc1ccc(S(=O)(=O)NCCC(C)(C)O)cc1-c1cnc(N)c(-c2cnn(CC(C)C)c2)n1 [Example 119.32]
0.7,0.25,1.79,0.04,> 9.1,380,1.8,0.037,3.9,5.87,0.51,Cc1ccc(S(=O)(=O)NCCC(C)(C)O)cc1-c1cnc(N)c(-c2cnn(CCC(C)C)c2)n1 [Example 119.26]
5.16,1.73,3.83,2.18,> 9.1,–,> 10,0.401,> 9.1,> 9.1,7.48,Cc1ccc(S(=O)(=O)NCCC(C)(C)O)cc1-c1cnc(N)c(-c2ccc(N3CCOCC3)nc2)n1 [Example 119.21]
4.41,0.57,2.19,0.53,> 9.1,–,> 10,0.157,1.93,2.34,> 10,Cc1ccc(S(=O)(=O)NCCC(C)(C)O)cc1-c1cnc(N)c(-c2c[nH]nc2C)n1 [Example 119.22]
1.48,1.66,4.86,0.96,> 9.1,–,7.33,0.162,8.81,> 9.1,1.65,Cc1ccc(S(=O)(=O)NCCC(C)(C)O)cc1-c1cnc(N)c(-c2ccoc2)n1 [Example 119.15]

# Reference: patent US10004732B2 (Novartis AG, priority 2014, dated 2018)
